Experimental data taken from patent US20080233206A1, “COMPOSITIONS AND METHODS FOR ANTI-INFLAMMATORY TREATMENTS” (Molecular Research Center, Inc., priority 2007, published 2008).
Where two headings read alike, the source gives them in different places.

What was measured:
[1] = system: human lymphoma Molt-4 cells; assay: Growth of human lymphoma Molt-4 cells; type: cell-based; settings: 5 μg/ml, read-out: inhibition of cell growth
Description: (§1) The intestine epithelial cells have a high proliferation rate. Thus, the anti-proliferating effect of semisynthetic or synthetic tetracyclines may lead to potential side effects, especially during a long-term therapy.

[2] = cited from earlier work
[3] = system: human intestine cell line CCL-221; assay: Growth of human intestine cell line CCL-221; type: cell-based; settings: 5 μg/ml
Description: as §1

[4] = system: various cell types; settings: in vitro and in vivo; cited from earlier work
[5] = prolonged treatment (for acne); cited from earlier work
[6] = human subjects, concurrently with a protein diet (Welling, 1977)

For `C[C@H]1c2cccc(O)c2C(=O)C2=C(O)[C@]3(O)C(=O)C(C(N)=O)=C(O)[C@@H](N(C)C)[C@@H]3[C@@H](O)[C@@H]21` [doxycycline], the inhibition at 5 µg/mL [1] is listed as roughly 80%, the serum level ([2]; fasting subjects (Depperman, 1989)) is listed as 2700 ng/mL and the serum level [2, 6] is listed as 2600 ng/mL. For the same compound, the serum level ([2]; with antacid (aluminum-magnesium hydroxide) (Depperman, 1989)) was 450 ng/mL and the inhibition at 5 µg/mL [3] was roughly 60%.
In the case of `NC(=O)C1=C(O)C[C@@H]2C[C@@H]3Cc4cccc(O)c4C(=O)C3=C(O)[C@]2(O)C1=O` [CMT-3], the “effect on cell proliferation” value [4] is listed as “inhibit proliferation”.
For `CN(C)c1ccc(O)c2c1C[C@H]1C[C@H]3[C@H](N(C)C)C(O)=C(C(N)=O)C(=O)[C@@]3(O)C(O)=C1C2=O` [minocycline], the induced syndrome [5] is listed as “drug-induced lupus”.
In the case of `CN(C)[C@@H]1C(O)=C(C(N)=O)C(=O)[C@@]2(O)C(O)=C3C(=O)c4c(O)cccc4[C@@](C)(O)[C@H]3C[C@@H]12` [tetracycline, 4-(Dimethylamino)-1,4,4α,5,5α,6,11,12α-octahydro-3,6,10,12,12α-pentahydroxy-6-methyl-1,1′-dioxo-2-naphtacenecarobxamide], the inhibition at 5 µg/mL [1] is listed as roughly 20% and the serum level [2, 6] is listed as 1800 ng/mL.
